Read-outs that look alike come from different tables or passages of the source.
How the values were obtained:
[1] = test system: HBeAg level (surrogate marker for cccDNA) in HepDES19 cells; experiment: Engineered HepDES19 primary screen assay (HBeAg as surrogate marker for cccDNA); format: cell-based, HBV
From the text: The assay was employed to screen for novel cccDNA inhibitors. HepDES19 is a cccDNA-producing cell line. In this cell line, HBeAg in the cell culture supernatant as surrogate marker, as HBeAg production depends on cccDNA level and activity. HepDES19 is an engineered cell line which contains a 1.1 unit length HBV genome, and pgRNA transcription from the transgene is controlled by Tetracycline (Tet). In the absence of Tet, pgRNA transcription will be induced, but HBV e antigen (HBeAg) could not be produced from this pgRNA due to very short leader sequence before the HBeAg start codon and the start codon is disrupted. Only after cccDNA is formed, the missing leader sequence and start codon mutation would be restored from the 3′-terminal redundancy of pgRNA, and then HBeAg could be synthesized. Therefore, HBeAg could be used as a surrogate marker for cccDNA (Zhou, T. et al., Antiviral Res. (2006), 72(2), 116-124; Guo, H. et al., J. Virol. (2007), 81(22), 12472-12484).
HepDES19 cells were seeded at 2×10^6 cells per T150 flask and cultured with the culture medium (Dulbecco's Modified Eagle Medium: Nutrient Mixture F-12 [DMEM-F12, Gibco Cat. 11320-82], 10% Fetal Bovine Serum [FBS, Clontech Cat. 631101], 0.1 mM Non-Essential Amino Acids Solution [NEAA, Gibco Cat. 11140-050], 50 μg/mL Penicillin-Streptomycin [PS, Invitrogen Cat. 15140-163], 500 μg/mL Geneticin [G418, Invitrogen Cat. 10131-027]) containing 3 μg/mL Tet (Sigma, Cat. 87128) for 5 days. Cells were then seeded at 4×10^6 cells per T150 in the same culture medium as described above in the absence of Tet for 8 days. Cells were then harvested and frozen at density of 2×10^6 cells per mL. For compound testing, the frozen cells were thawed and seeded into 96-well plates at a density of 6×10^4 cells per well. At 24 hrs after seeding, half log serial dilutions of compounds made with Dimethyl sulfoxide (DMSO, Sigma, Cat. D2650) were further diluted with the same culture medium as described above before they were added to the cells to reach desired final compound concentrations and 1% DMSO concentration. Plates were then incubated at 37° C. for another 5 days before measurement of HBeAg level and cell viability. Intracellular HBeAg level were measured with enzyme-linked immunosorbent assay (ELISA) kit (Shanghai Kehua Diagnostic Medical Products Co., Ltd). Cell viability was assessed using Cell Counting Kit-8 (Donjindo, Cat. CK04-20). IC50 values were derived from the dose-response curve using 4 parameter logistic curve fit method.
The compounds of the present invention were tested for their capacity to inhibit extracellular HBeAg level as described herein.

[2] = test system: HBV in primary human hepatocytes (PHH); experiment: Cryopreserved primary human hepatocytes (PHH) HBV infection assay; format: cell-based; settings: Hepatitis B virus, Hepatocyte, 216 h, HBV-infected cryopreserved PHH, 9 days post-compound treatment
Procedure: This assay is used to confirm the anti-HBV effect of the compounds in HBV PHH infection assay. Cryopreserved PHH (BioreclamationIVT, Lot YJM) was thawed at 37° C. and gently transferred into pre-warmed InVitroGRO HT medium (BioreclamationIVT, Cat. S03317). The mixture was centrifuged at 70 relative centrifugal force (RCF) for 3 minutes at RT, and the supernatant was discarded. Pre-warmed InVitroGRO CP medium (BioreclamationIVT, Cat #S03316) was added to the cell pellet to gently re-suspend cells. The cells were seeded at the density of 5.8×10^4 cells per well to collagen I coated 96-well plate (Gibco, Cat. A1142803) with the InVitroGRO CP medium. All plates were incubated at 37° C. with 5% CO2 and 85% humidity.
At 20 hours after plating, the medium was changed to PHH culture medium (Dulbecco's Modified Eagle Medium (DMEM)/F12 (1:1) (Gibco, Cat. 11320-033), 10% fetal bovine serum (Gibco Cat. 10099141), 100 U/mL penicillin, 100 μg/mL streptomycin (Gibco, Cat. 151401-122), 5 ng/mL human epidermal growth factor (Invitrogen Cat. PHG0311L), 20 ng/mL dexamethasone (Sigma, Cat. D4902) and 250 ng/mL human recombinant insulin (Gibco, Cat. 12585-014)). And the cells were incubated at 37° C. with 5% CO2 and 85% humidity for 4 hours. The medium was then changed to pre-warmed PHH culture medium containing 4% polyethylene glycol (PEG) MW8000 (Sigma, Cat. P1458-50ML) and 1% DMSO (Sigma, Cat. D2650). 5.8×10^6 genomic equivalents of HBV were added into the medium.
At 24 hours post-infection, the cells were gently washed with PBS and refreshed with PHH culture medium supplemented with 1% DMSO, and 0.25 mg/mL Matrix gel (Corning, Cat. 356237) at 200 μL per well. All plates were immediately placed in at 37° C. CO2 incubator.
24 hours later, serial dilutions of compounds made with DMSO were further diluted with the same culture medium (PHH culture medium supplemented with 1% DMSO and 0.25 mg/mL Matrix gel as described above) before they were added to the cells to reach desired final compound concentrations and 1% DMSO concentration. The medium containing the compounds were refreshed every three days.
At 9 days post-compound treatment, extracellular HBsAg level were measured with Chemiluminescence Immuno Assay (CLIA) kit (Autobio, HBsAg Quantitative CLIA). Extracellular HBV DNA was extracted by MagNA Pure 96 system (Roche) and then determined by quantitative PCR with the following primers and probe: […]
HBsAg IC50 and HBV DNA IC50 values were derived from the dose-response curve using 4 parameter logistic curve fit method. The compounds of formula (I) have HBsAg IC50<20 μM, particularly <1 μM; and HBV DNA IC50<50 μM. Test results of the compounds of this invention as well as the reference compounds in Cryopreserved PHH assay are given in Table 2 and Table 3.

[3] = Hepatitis B virus, HepDES19, 120 h, read-out: IC50 (HBeAg) in HepDES19 primary screen assay, HepDES19 cells, 5 days incubation with compound, HBeAg by ELISA
[4] = extracellular HBsAg by CLIA, read-out: HBsAg IC50
[5] = read-out: IC50 (HBeAg) in HepDES19 primary screen assay, HepDES19 cells, 5 days incubation with compound, HBeAg by ELISA

COc1ccc2c(=O)c(-c3ccc(C(=O)O)cc3)coc2c1 [Example F-3, 4-(7-methoxy-4-oxo-chromen-3-yl)benzoic acid, reference compound]
IC50 [1, 3]: > 50000 nM | IC50 [2, 4]: > 100000 nM

CCOC(=O)C1CC(OCCOc2ccc(-c3cc(=O)c4cccc(Cl)c4o3)cc2)C1 (stereo not shown) [Example 2, Ethyl 3-[2-[4-(8-chloro-4-oxo-chromen-2-yl)phenoxy]ethoxy]cyclobutanecarboxylate]
IC50 [1, 3]: 2480 nM | IC50 [2, 4]: 190 nM

O=C(O)C1CC(OCCOc2ccc(-c3cc(=O)c4ccc(C(F)(F)F)c(Cl)c4o3)cc2)C1 (stereo not shown) [Example 69, 3-[2-[4-[8-chloro-4-oxo-7-(trifluoromethyl)chromen-2-yl]phenoxy]ethoxy]cyclobutanecarboxylic acid]
IC50 [1, 3]: 10700 nM | IC50 [2, 4]: 2010 nM

O=c1cc(-c2ccc(OCCO[C@H]3C[C@@H](C(=O)O)C3)cc2)oc2c(Cl)ccc(Cl)c12 [Example 29, Cis-3-[2-[4-(5,8-dichloro-4-oxo-chromen-2-yl)phenoxy]ethoxy]cyclobutanecarboxylic acid]
IC50 [1, 3]: 210 nM | IC50 [2, 4]: 900 nM

O=c1cc(-c2ccc(OCCO[C@H]3C[C@@H](C(=O)O)C3)nc2)oc2c(Cl)cccc12 (single isomer, unassigned) [Example 38-A, 3-[2-[[5-(8-chloro-4-oxo-chromen-2-yl)-2-pyridyl]oxy]ethoxy]cyclobutanecarboxylic acid]
IC50 [1, 5]: 5290 nM | IC50 [2, 4]: 460 nM

O=C(O)C1CCC(OCCOc2ccc(-c3cc(=O)c4cccc(Cl)c4o3)cc2)C1 (stereo not shown) [Example 6, 3-[2-[4-(8-chloro-4-oxo-chromen-2-yl)phenoxy]ethoxy]cyclopentanecarboxylic acid]
IC50 [1, 3]: 1950 nM | IC50 [2, 4]: 860 nM

O=C(O)C1CC(OCCOc2ccc(-c3cc(=O)c4ccc(C5CC5)c(Cl)c4o3)cc2)C1 (single isomer, unassigned) [Example 70-B, 3-[2-[4-(8-chloro-7-cyclopropyl-4-oxo-chromen-2-yl)phenoxy]ethoxy]cyclobutanecarboxylic acid]
IC50 [1, 5]: 2140 nM | IC50 [2, 4]: 4790 nM

O=c1cc(-c2ccc(OCCO[C@H]3C[C@@H](C(=O)O)C3)cc2)oc2c(Cl)ccc(C3CC3)c12 [Example 30, Cis-3-[2-[4-(8-chloro-5-cyclopropyl-4-oxo-chromen-2-yl)phenoxy]ethoxy]cyclobutanecarboxylic acid]
IC50 [1, 3]: 130 nM | IC50 [2, 4]: 7290 nM

Cc1cc(-c2cc(=O)c3cccc(Cl)c3o2)ccc1OCCOC1CC(C(=O)O)C1 (stereo not shown) [Example 47, 3-[2-[4-(8-chloro-4-oxo-chromen-2-yl)-2-methyl-phenoxy]ethoxy]cyclobutanecarboxylic acid]
IC50 [1, 3]: 40 nM | IC50 [2, 4]: 240 nM

O=C(O)C1CC(OCCOc2ccc(-c3oc4c(Cl)cccc4c(=O)c3Cl)cc2)C1 (stereo not shown) [Example 53, 3-[2-[4-(3,8-dichloro-4-oxo-chromen-2-yl)phenoxy]ethoxy]cyclobutanecarboxylic acid]
IC50 [1, 3]: 22000 nM | IC50 [2, 4]: 4010 nM

O=c1cc(-c2ccc(OCCO[C@H]3C[C@@H](C(=O)O)C3)cc2)oc2c(Cl)ccc(Br)c12 [Example 28, Cis-3-[2-[4-(5-bromo-8-chloro-4-oxo-chromen-2-yl)phenoxy]ethoxy]cyclobutanecarboxylic acid]
IC50 [1, 3]: 2800 nM | IC50 [2, 4]: 1920 nM

COc1ccc(-c2cc(=O)c3cc(OC)ccc3o2)cc1 [Example F-1, 6,4′-dimethoxyflavone, reference compound]
IC50 [1, 3]: > 50000 nM | IC50 [2, 4]: 61700 nM

O=C(O)c1cccc(OCCOc2ccc(-c3cc(=O)c4cccc(Cl)c4o3)cc2)c1 [Example 3, 3-[2-[4-(8-chloro-4-oxo-chromen-2-yl)phenoxy]ethoxy]benzoic acid]
IC50 [1, 3]: 150 nM | IC50 ([2]; extracellular HBV DNA by quantitative PCR, read-out: HBV DNA IC50): 35700 nM | IC50 [2, 4]: 12500 nM

O=C(O)COCCOc1ccc(-c2cc(=O)c3cccc(Cl)c3s2)cc1 [Example 58, 2-[2-[4-(8-chloro-4-oxo-thiochromen-2-yl)phenoxy]ethoxy]acetic acid]
IC50 [1, 3]: 520 nM | IC50 [2, 4]: 570 nM

COC(=O)[C@H]1C[C@@H](OCCOc2cnc(-c3cc(=O)c4cccc(Cl)c4o3)cn2)C1 [Example 40, Cis-methyl 3-[2-[5-(8-chloro-4-oxo-chromen-2-yl)pyrazin-2-yl]oxyethoxy]cyclobutanecarboxylate]
IC50 [1, 3]: 1610 nM | IC50 [2, 4]: 7120 nM

CC(C)(COCCOc1ccc(-c2cc(=O)c3cccc(Cl)c3o2)cc1)C(=O)O [Example 11, 3-[2-[4-(8-chloro-4-oxo-chromen-2-yl)phenoxy]ethoxy]-2,2-dimethyl-propanoic acid]
IC50 [1, 3]: 570 nM | IC50 [2, 4]: 12500 nM

CCOc1cc(OCCOC2CC(C(=O)O)C2)ccc1-c1cc(=O)c2cccc(Cl)c2o1 (stereo not shown) [Example 51, 3-[2-[4-(8-chloro-4-oxo-chromen-2-yl)-3-ethoxy-phenoxy]ethoxy]cyclobutanecarboxylic acid]
IC50 [1, 3]: 860 nM | IC50 [2, 4]: 940 nM

Cc1cc(-c2cc(=O)c3ccc(C(F)(F)F)c(Cl)c3o2)ccc1OCCOC1CC(C(=O)O)C1 (stereo not shown) [Example 72, 3-[2-[4-[8-chloro-4-oxo-7-(trifluoromethyl)chromen-2-yl]-2-methyl-phenoxy]ethoxy]cyclobutanecarboxylic acid]
IC50 [1, 3]: 14400 nM | IC50 [2, 4]: 7410 nM

O=C(O)CCOCCOc1ccc(-c2cc(=O)c3cccc(Cl)c3o2)cc1 [Example 10, 3-[2-[4-(8-chloro-4-oxo-chromen-2-yl)phenoxy]ethoxy]propanoic acid]
IC50 [1, 3]: 790 nM | IC50 [2, 4]: 2720 nM

N#Cc1ccc2c(=O)cc(-c3ccc(OCCOC4CC(C(=O)O)C4)cc3)oc2c1Cl (single isomer, unassigned) [Example 23-B, 3-[2-[4-(8-chloro-7-cyano-4-oxo-chromen-2-yl)phenoxy]ethoxy]cyclobutanecarboxylic acid]
IC50 [2, 4]: 6890 nM
